Measurements as given in the OligoGym collection.
Values joined by “and” are separate entries in the source; they are usually repeats but may differ in a detail not shown here. Identical values can stand only once. HELM strings list units from the 5' end as sugar, base in round brackets, then linkage (d deoxyribose, r ribose, m 2'-O-methyl, p phosphodiester). Strings are as the collection lists them, not checked against the first reports. ss, as = sense and antisense strand; [lna] = locked nucleic acid (LNA); [fl2r] = 2'-fluoro

Details: siRNA
Further: test system not given here.

Substance	target mRNA knockdown
RNA1{r(A)p.r(A)p.r(C)p.r(C)p.[fl2r](C)p.r(A)p.r(C)p.r(C)p.r(A)p.[fl2r](C)p.r(A)p.r(G)p.r(C)p.[fl2r](U)p.r(A)p.r(G)p.r(A)p.r(A)p.r(C)p.r(U)p.r(U)}|RNA2{r(G)p.r(U)p.r(U)p.r(C)p.[fl2r](U)p.r(A)p.r(G)p.r(C)p.[fl2r](U)p.r(G)p.[fl2r](U)p.r(G)p.r(G)p.[fl2r](U)p.r(G)p.r(G)p.r(G)p.r(U)p.r(U)p.r(U)p.r(U)}$$$RNA1{StrandType:ss}|RNA2{StrandType:as}$	79%
RNA1{r(A)p.r(U)p.r(C)p.r(G)p.r(U)p.r(C)p.r(G)p.r(U)p.m(C)p.r(A)p.r(G)p.r(G)p.r(G)p.m(U)p.r(A)p.r(A)p.r(G)p.r(G)p.r(U)p.r(T)p.r(T)}|RNA2{r(A)p.r(C)p.r(C)p.r(U)p.m(U)p.r(A)p.r(C)p.r(C)p.r(C)p.m(U)p.r(G)p.r(A)p.r(C)p.r(G)p.r(A)p.r(C)p.r(G)p.r(A)p.r(U)p.r(T)p.r(T)}$$$RNA1{StrandType:ss}|RNA2{StrandType:as}$	47%
RNA1{m(U)p.r(U)p.m(U)p.r(G)p.m(A)p.r(U)p.m(C)p.r(A)p.m(G)p.r(C)p.m(G)p.r(G)p.m(A)p.r(G)p.m(A)p.r(C)p.m(U)p.r(C)p.m(G)p.r(T)p.r(T)}|RNA2{r(C)p.r(G)p.r(A)p.r(G)p.r(U)p.r(C)p.r(U)p.r(C)p.r(C)p.m(G)p.r(C)p.r(U)p.r(G)p.r(A)p.m(U)p.r(C)p.r(A)p.r(A)p.r(A)p.r(T)p.r(T)}$$$RNA1{StrandType:ss}|RNA2{StrandType:as}$	49%
RNA1{r(G)p.r(A)p.m(U)p.r(A)p.r(C)p.r(U)p.r(U)p.r(C)p.m(U)p.r(G)p.r(G)p.r(U)p.r(U)p.r(C)p.r(C)p.r(C)p.r(U)p.r(C)p.r(C)p.r(T)p.r(T)}|RNA2{r(G)p.r(G)p.r(A)p.r(G)p.r(G)p.r(G)p.r(A)p.r(A)p.r(C)p.m(C)p.r(A)p.r(G)p.r(A)p.r(A)p.r(G)p.m(U)p.r(A)p.r(U)p.r(C)p.r(T)p.r(T)}$$$RNA1{StrandType:ss}|RNA2{StrandType:as}$	45%
RNA1{r(G)p.r(C)p.r(U)p.r(U)p.m(U)p.r(A)p.r(A)p.r(G)p.r(G)p.r(A)p.r(A)p.r(C)p.m(U)p.r(G)p.r(G)p.r(A)p.r(A)p.r(G)p.r(G)p.r(T)p.r(T)}|RNA2{r(C)p.r(C)p.r(U)p.r(U)p.r(C)p.m(C)p.r(A)p.r(G)p.r(U)p.r(U)p.r(C)p.r(C)p.r(U)p.m(U)p.r(A)p.r(A)p.r(A)p.r(G)p.r(C)p.r(T)p.r(T)}$$$RNA1{StrandType:ss}|RNA2{StrandType:as}$	37%
RNA1{r(C)p.r(U)p.r(U)p.r(A)p.r(C)p.r(G)p.r(C)p.r(U)p.r(G)p.r(A)p.r(G)p.r(U)p.r(A)p.r(C)p.r(U)p.r(U)p.r(C)p.r(G)p.r(A)p.r(T)p.r(T)}|RNA2{r(U)p.r(C)p.r(G)p.r(A)p.r(A)p.r(G)p.[lna](U)p.r(A)p.r(C)p.r(U)p.r(C)p.r(A)p.r(G)p.r(C)p.r(G)p.r(U)p.r(A)p.r(A)p.r(G)p.r(T)p.r(T)}$$$RNA1{StrandType:ss}|RNA2{StrandType:as}$	81%
RNA1{r(A)p.r(G)p.r(C)p.r(G)p.r(A)p.r(U)p.r(C)p.r(C)p.r(C)p.r(G)p.r(A)p.r(A)p.r(C)p.r(A)p.r(A)p.r(G)p.r(U)p.r(A)p.r(U)p.r(T)p.r(T)}|RNA2{r(A)p.m(U)p.r(A)p.r(C)p.r(U)p.r(U)p.r(G)p.r(U)p.r(U)p.r(C)p.r(G)p.r(G)p.r(G)p.r(A)p.r(U)p.r(C)p.r(G)p.r(C)p.r(U)p.r(T)p.r(T)}$$$RNA1{StrandType:ss}|RNA2{StrandType:as}$	85%
RNA1{r(C)p.r(U)p.r(U)p.r(A)p.r(C)p.r(G)p.r(C)p.r(U)p.r(G)p.r(A)p.r(G)p.r(U)p.r(A)p.r(C)p.r(U)p.r(U)p.r(C)p.r(G)p.r(A)p.[lna](T)p.[lna](T)}|RNA2{r(U)p.r(C)p.r(G)p.r(A)p.r(A)p.r(G)p.r(U)p.r(A)p.r(C)p.r(U)p.r(C)p.r(A)p.r(G)p.r(C)p.r(G)p.r(U)p.r(A)p.r(A)p.r(G)p.[lna](T)p.[lna](T)}$$$RNA1{StrandType:ss}|RNA2{StrandType:as}$	93% and 92%
